From US20080194880A1, “Process For the Preparation of Polymorphs of Mesotrione” (priority 2004, published 2008)

Tests used:
Assay type in all cases: physicochemical
[1] = Conversion of isolated Form 2 mesotrione to Form 1 in water in the presence of xylene at different pH; conditions: xylene:mesotrione 1:5, 21 °C
Text: This is an example of the conversion of already isolated Form 2 mesotrione to Form 1 mesotrione in the presence of solvent. A 10% solution of Form 2 in water was made at different pH values ranging from 2 to 6. If seeded, a seed concentration of 2% Form 1 relative to the Form 2 mesotrione concentration was used. A 1:5 ratio of xylene to mesotrione was used in these experiments. Actual conversion time may be less than shown.

[2] = Conversion of in-process Form 2 mesotrione slurry from the crystallizer to Form 1; conditions: not seeded
Text: This is an example of converting in process Form 2 mesotrione to Form 1 mesotrione. Form 2 material was made in the plant via a process upset. […]

[3] = Conversion of isolated Form 2 mesotrione to Form 1 in process filtrate with TEA and NaCl; conditions: not seeded
[4] = Conversion of isolated Form 2 mesotrione to Form 1 in process filtrate
[5] = Polymorphic stability of pure mesotrione in aqueous suspension at pH 1 to 4
Method: 1.6 g of the re-crystallised mesotrione crystals were stirred with water (30 ml) in a reaction flask and the pH increased to 12 by the addition of sodium hydroxide. 1.5 ml of 10% hydrochloric acid was added over 15 minutes to reduce the pH of the solution to pH ranges between 1 and 4. The suspension was stirred and the polymorphic form of the crystals was determined as Form 2 by optical microscopy and FT-IR. Below pH 2.5, Form 2 transformed to Form 1 within 1 hour. At pH 3 Form 2 was stable but converted to Form 1 when seeded with Form 1 over four hours.

[6] = Stabilising Form 2 mesotrione in a 0.05% Rhodasurf DA630 solution; conditions: pH 5.5, after 10 days
Method: 0.5 g of Form 2 mesotrione crystals were stirred with a 0.05% Rhodasurf DA630 (15 ml) in a reaction flask. A pH probe was placed in the system and the pH was increased to 11.5 by the addition of 0.6 ml of 10% sodium hydroxide solution. The pH of the solution was reduced to 5.5 by the addition of 0.74 g of Form 2 mesotrione. The polymorphic form of the mesotrione was monitored periodically by microscopy and FT-IR.

With CS(=O)(=O)c1ccc(C(=O)C2C(=O)CCCC2=O)c([N+](=O)[O-])c1 [Form 2 mesotrione, 2-(4-methylsulphonyl-2-nitrobenzoyl)cyclohexane-1,3-dione] as the molecule, how does the “Dominant Polymorph Form (IR)” value ([1]; Example 1A: 10% Form 2 in water, 6.3 hr, pH 2.0, seeded 2% Form 1) read?
The value was 1.

And the “Dominant Polymorph Form (IR)” value ([1]; Example 1B: 10% Form 2 in water, 6.3 hr, pH 2.9, seeded 2% Form 1)?
The value was 2.

And the “Dominant Polymorph Form (IR)” value ([1]; Example 1C: 10% Form 2 in water, 6.3 hr, pH 4.1, seeded 2% Form 1)?
The value was 2.

What about the “Dominant Polymorph Form (IR)” value ([1]; Example 1D: 10% Form 2 in water, 6.3 hr, pH 5.9, seeded 2% Form 1) of the same molecule?
Its value is 2.

What about the “Dominant Polymorph Form (IR)” value ([1]; Example 1E: 10% Form 2 in water, 6.3 hr, pH 2.5, seeded 2% Form 1) of the same molecule?
The value was 1.

What about the “Dominant Polymorph Form (IR)” value ([1]; Example 1F: 10% Form 2 in water, 6.3 hr, pH 5.1, seeded 2% Form 1) of the same molecule?
Its value is 2.

And the “Dominant Polymorph Form (IR)” value ([1]; Example 1G: 10% Form 2 in water, 23.3 hr, pH 2.0, seeded 2% Form 1)?
Its value is 1.

And the “Dominant Polymorph Form (IR)” value ([1]; Example 1H: 10% Form 2 in water, 23.3 hr, pH 2.9, seeded 2% Form 1)?
The value was 2.

And the “Dominant Polymorph Form (IR)” value ([1]; Example 1I: 10% Form 2 in water, 23.5 hr, pH 5.9, seeded 2% Form 1)?
Its value is 2.

What about the “Dominant Polymorph Form (IR)” value ([1]; Example 1J: 10% Form 2 in water, 23.5 hr, pH 2.5, seeded 2% Form 1) of the same molecule?
Its value is 1.

And the “Dominant Polymorph Form (IR)” value ([1]; Example 1K: 10% Form 2 in water, 23.5 hr, pH 2.0, not seeded)?
The value was 1.

And the “Dominant Polymorph Form (IR)” value ([1]; Example 1L: 10% Form 2 in water, 22.0 hr, pH 2.0, not seeded)?
Its value is 1.

And the “Dominant Polymorph Form (IR)” value ([1]; Example 1M: 10% Form 2 in water, 22.0 hr, pH 4.0, not seeded)?
Its value is 2.

What about the Hours to convert ([2]; Example 2A: Form 2 slurry, 20° C., pH 3.2, not agitated, did not convert after 4-5 days) of the same molecule?
Its Hours to convert is “Did not”.

What about the Hours to convert ([2]; Example 2B: Form 2 slurry, 40° C., pH 2.0, agitated) of the same molecule?
The Hours to convert was 4 h.

What about the Hours to convert ([2]; Example 2C: Form 2 slurry, 50° C., pH 2.0, agitated) of the same molecule?
Its Hours to convert is 1.4 h.

What about the Hours to convert ([2]; Example 2D: Form 2 slurry, 50° C., pH 2.9, agitated) of the same molecule?
The Hours to convert was 1.8 h.

What about the Hours to convert ([2]; Example 2E: Form 2 slurry, 40° C., pH 2.0, agitated) of the same molecule?
The Hours to convert was 4 h.

And the Hours to convert ([3]; Example 3A: process filtrate, temp 40, pH 1.8, no meso:TEA or meso:NaCl ratio printed, agitated)?
Its Hours to convert is 17 h.

And the Hours to convert ([3]; Example 3B: process filtrate, temp 50, pH 2.0, meso:TEA 1:1.3, meso:NaCl 2:1, agitated)?
Its Hours to convert is 1 h.

What about the Hours to convert ([3]; Example 3C: process filtrate, temp 50, pH 2.0, meso:TEA 1:1.3, meso:NaCl 2:1, agitated) of the same molecule?
The Hours to convert was 5 h.

And the Hours to convert ([3]; Example 3D: process filtrate, temp 50, pH 1.8, meso:TEA 1:1.3, meso:NaCl 2:1, agitated)?
The Hours to convert was 4 h.

What about the Hours to convert ([4]; Example 4A: process filtrate, temp 22, pH 3.6, agitated, seeded, did not convert after 52 hrs) of the same molecule?
The Hours to convert was “Did not”.

What about the Hours to convert ([4]; Example 4B: process filtrate, temp 22, pH 3.6, agitated, seeded, did not convert after 48 hrs) of the same molecule?
The Hours to convert was “Did not”.

And the Hours to convert ([4]; Example 4C: process filtrate, temp 30, pH 3.6, agitated, seeded, did not convert after 18 hrs)?
The Hours to convert was “Did not”.

What about the Hours to convert ([4]; Example 4D: process filtrate, temp 50, pH 2.0, agitated, not seeded) of the same molecule?
The Hours to convert was 2 h.

And the Hours to convert ([4]; Example 4E: process filtrate, temp 50, pH 1.8, agitated, not seeded)?
Its Hours to convert is 2 h.

What about the Hours to convert ([4]; Example 4F: process filtrate, temp 50, pH 1.8, not agitated, not seeded) of the same molecule?
Its Hours to convert is 2 h.

And the “Transformation of Form 2 to Form 1” value ([5]; aqueous suspension, pH between 3.5 and 4, heated to 40° C., 1% by weight of Form 1 seeds added)?
The value was “would not transform to Form 1”.

And the “Polymorphic form of the suspension” value ([5]; pH between 3.5 and 4, determined periodically over the next 3 weeks)?
Its value is “always found to be Form 2”.

And the “Transformation of Form 2 to Form 1” value ([5]; pH between 3.5 and 4, samples taken several months later)?
The value was “had not transformed to Form 1”.

What about the “Time for Form 2 to transform to Form 1” value ([5]; stirred aqueous suspension, below pH 2.5) of the same molecule?
Its value is no more than 1 h.

What about the “Polymorphic stability of Form 2” value ([5]; stirred aqueous suspension, pH 3, not seeded) of the same molecule?
Its value is “stable”.

And the “Time for Form 2 to convert to Form 1” value ([5]; stirred aqueous suspension, pH 3, seeded with Form 1)?
The value was “four”.

And the “Polymorphic form (microscopy and FT-IR)” value [6]?
Its value is “still predominately Form 2”.
